# Several values for one entry are separate records, joined by “and”; a condition that tells them apart may be missing. Identical values can stand only once. Like-named read-outs stand apart in the source and are kept apart here.
# Experiment: Compound 1 PK dosed Days 1-5 with topotecan
# Format: in vivo, human
# Conditions: for pre-dose concentration averaging: Day 4, mean; for AUC(0-inf) / Cmax / half-life: human, plasma, intravenous; for AUC(0-inf): read-out: AUCinf; for Cmax: read-out: Cmax; for half-life: read-out: t½ (converted)
# Description: Analysis of plasma concentration versus time data for calculation of standard pharmacokinetic (PK) parameters following intravenous infusion administration was conducted using Phoenix WinNonlin version 6.3 using a nominal infusion duration and scheduled blood sampling times.
# [1] = 200 mg/m^2 with Topotecan 0.75 mg/m^2 (Cohort 3), Day 1, Max
# [2] = 200 mg/m^2 with Topotecan 0.75 mg/m^2 (Cohort 3), Day 1, individual subjects
# [3] = 200 mg/m^2 with Topotecan 0.75 mg/m^2 (Cohort 3), Day 4, individual subjects
# [4] = 200 mg/m^2 with Topotecan 1.25 mg/m^2 (Cohort 2), Day 1, Max
# [5] = 200 mg/m^2 with Topotecan 1.25 mg/m^2 (Cohort 2), Day 1, Min
# [6] = 200 mg/m^2 with Topotecan 1.25 mg/m^2 (Cohort 2), Day 1, individual subjects
# [7] = 200 mg/m^2 with Topotecan […]^2 (Cohort 1), Day 1, Max
# [8] = 200 mg/m^2 with Topotecan […]^2 (Cohort 1), Day 1, individual subjects
# [9] = 200 mg/m^2 with Topotecan 0.75 mg/m^2 (Cohort 3), Day 1, Geo. Mean
# [10] = 200 mg/m^2 with Topotecan 0.75 mg/m^2 (Cohort 3), Day 1, Mean
# [11] = 200 mg/m^2 with Topotecan 0.75 mg/m^2 (Cohort 3), Day 1, Median
# [12] = 200 mg/m^2 with Topotecan 0.75 mg/m^2 (Cohort 3), Day 4, Geometric Mean
# [13] = 200 mg/m^2 with Topotecan 0.75 mg/m^2 (Cohort 3), Day 4, Mean
# [14] = 200 mg/m^2 with Topotecan 0.75 mg/m^2 (Cohort 3), Day 4, Median
# [15] = 200 mg/m^2 with Topotecan 1.25 mg/m^2 (Cohort 2), Day 1, Geo. Mean
# [16] = 200 mg/m^2 with Topotecan 1.25 mg/m^2 (Cohort 2), Day 1, Mean
# [17] = 200 mg/m^2 with Topotecan 1.25 mg/m^2 (Cohort 2), Day 1, Median
smiles,measurement,setting,value
"CN1CCN(c2ccc(Nc3ncc4cc5n(c4n3)C3(CCCCC3)CNC5=O)nc2)CC1 [Compound 1, 2′-((5-(4-methylpiperazin-1-yl)pyridin-2-yl)amino)-7′,8′-dihydro-6′H-spiro[cyclohexane-1,9′-pyrazino[1′,2′:1,5]pyrrolo[2,3-d]pyrimidin]-6′-one]",AUC24.5,[1],2540 ng·h/mL
same,AUCinf,[1],2660 ng·h/mL
same,t½,[1],9.24 h
same,t½,"200 mg/m^2 with Topotecan 0.75 mg/m^2 (Cohort 3), Day 1, Min",6.64 h
same,AUC24.5,[2],2540 ng·h/mL
same,AUCinf,[2],2240 ng·h/mL and 2660 ng·h/mL
same,t½,[2],6.64 h and 9.24 h and 6.69 h
same,t½,"200 mg/m^2 with Topotecan 0.75 mg/m^2 (Cohort 3), Day 4, Min",6.87 h
same,t½,[3],9.54 h and 6.87 h
same,AUC24.5,[4],2450 ng·h/mL
same,AUCinf,[4],2720 ng·h/mL
same,AUC24.5,[5],2130 ng·h/mL
same,t½,[5],6.14 h
same,AUC24.5,[6],2450 ng·h/mL and 2130 ng·h/mL
same,AUCinf,[6],2720 ng·h/mL and 2430 ng·h/mL
same,t½,"200 mg/m^2 with Topotecan 1.25 mg/m^2 (Cohort 2), Day 4, Max",10.6 h
same,t½,"200 mg/m^2 with Topotecan 1.25 mg/m^2 (Cohort 2), Day 4, Min",7.15 h
same,t½,"200 mg/m^2 with Topotecan 1.25 mg/m^2 (Cohort 2), Day 4, individual subjects",9.10 h and 10.6 h
same,AUCinf,[7],2430 ng·h/mL
same,t½,[7],6.24 h
same,t½,"200 mg/m^2 with Topotecan […]^2 (Cohort 1), Day 1, Min",5.60 h
same,AUCinf,[8],2430 ng·h/mL
same,t½,[8],6.24 h
same,t½,"200 mg/m^2 with Topotecan […]^2 (Cohort 1), Day 4, Max",9.15 h
same,t½,"200 mg/m^2 with Topotecan […]^2 (Cohort 1), Day 4, Min",6.96 h
same,t½,"200 mg/m^2 with Topotecan […]^2 (Cohort 1), Day 4, individual subjects",9.15 h
same,pre-dose concentration averaging,Cohort 2 (Topotecan 1.25 mg/m^2),33.3 ng/mL
same,pre-dose concentration averaging,Cohort 3 (Topotecan 0.75 mg/m^2),27.1 ng/mL
same,AUC(0-inf),[9],2170 ng·h/mL
same,Cmax,[9],1060 ng/mL
same,half-life,[9],7.33 h
same,AUC(0-inf),[10],2200 ng·h/mL
same,Cmax,[10],1140 ng/mL
same,half-life,[10],7.4 h
same,AUC(0-inf),[11],2220 ng·h/mL
same,half-life,[11],6.85 h
same,half-life,[2],7.01 h
same,Cmax,[12],1200 ng/mL
same,half-life,[12],8.69 h
same,Cmax,[13],1330 ng/mL
same,half-life,[13],8.81 h
same,Cmax,[14],1590 ng/mL
same,half-life,[14],8.82 h
same,half-life,[3],10.7 h
same,AUC(0-inf),[15],2490 ng·h/mL
same,Cmax,[15],895 ng/mL
same,half-life,[15],7.77 h
same,AUC(0-inf),[16],2490 ng·h/mL
same,half-life,[16],7.87 h
same,AUC(0-inf),[17],2430 ng·h/mL
same,half-life,[17],8.67 h
same,AUC(0-inf),[6],2320 ng·h/mL
same,Cmax,[6],1000 ng/mL
same,half-life,[6],6.14 h

# From patent publication US20160220569A1, “CDK4/6 Inhibitor Dosage Formulations For The Protection Of Hematopoietic Stem And Progenitor Cells During Chemotherapy” (G1 Therapeutics, Inc., priority 2015, published 2016)
